From patent publication US20080269204A1, “Compounds and Methods of Use Thereof” (priority 2004, published 2008)

What follows are compounds tested on TNF-α production by PMBC (assay: Inhibition of TNF-α production by peripheral blood monocyte cells (PMBC), LPS-stimulated). Conditions: 1 ug/mL LPS, 24 hours at 37° C, TNF-α quantified by EIA.
Assay type: cell-based
Experimental: Inhibition of TNF-α Production By Peripheral Blood Monocyte Cells (PMBC)
PMBC in RPMI 1640 Cell Culture Medium (containing 1% Penicillin and 1% Streptomycin) are aliquoted into 96-well plates at 5×10^5 cells/well and pre-incubated with test compounds for 30 minutes at 37° C. After incubation, 1 ug/mL LPS is added to each well to stimulate TNF-α production and the plate is incubated for 24 hours at 37° C. After incubation, the supernatant is removed and the TNF-α secreted is quantified using EIA detection kits commercially available from R&D Systems (USA). The results from this assay are expressed as percent inhibition of control activity, with the control being stimulated wells with no test compound. Dexamethasone is used as a standard reference compound in the assay and is tested with each experiment. All test compounds are diluted from 10 mM stock solutions in 100% DMSO.

Row | IC50 [nM] | SMILES
1 | 260 | O=C1COc2ccc(F)cc2N1CCCCCB(O)O [Example 3, 5-(6-fluoro-2,3-dihydro-3-oxobenzo[b][1,4]oxazin-4-yl)pentylboronic acid]
2 | 700 | O=C1CSc2ccccc2N1CCCCCB(O)O [Example 4, 5-(2,3-dihydro-3-oxobenzo[b][1,4]thiazin-4-yl)pentylboronic acid]
3 | 80 | O=C1CSc2cc(Cl)ccc2N1CCCCCB(O)O [Example 5, 5-(7-chloro-2,3-dihydro-3-oxobenzo[b][1,4]thiazin-4-yl)pentylboronic acid]
4 | 74 | O=C1COc2cc([N+](=O)[O-])ccc2N1CCCCCB(O)O [Example 6, 5-(2,3-dihydro-7-nitro-3-oxobenzo[b][1,4]oxazin-4-yl)pentylboronic acid]
5 | 360 | O=C1COc2ccccc2N1CCCCCB(O)O [Example 7, 5-(2,3-dihydro-3-oxobenzo[b][1,4]oxazin-4-yl)pentylboronic acid]
6 | 810 | CCOC(=O)CC1Sc2ccccc2N(CCCCCB(O)O)C1=O (stereo not drawn) [Example 8, ethyl 2-(3,4-dihydro-3-oxo-4-(5-pentylboronic acid)-2H-benzo[b][1,4]thiazin-2-yl)acetate]
